# Data taken from patent US20250114374A1, “BCL-2 INHIBITORS” (Newave Pharmaceutical Inc., priority 2021, published 2025).
# Where two headings read alike, the source gives them in different places.
# Tested on: RS4; 11 with G101V mutation
# Assay: In vitro anti-proliferation assay (ATPlite luminescence) in BCL-2-dependent ALL cell line RS4;11 with G101V mutation
# Format: cell-based
# Conditions: read-out: RS411-G101V IC50
# How it was run: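 RS4;11 G101V cells at about 1×10^4 per well were exposed to a range of compound concentrations for about 72 h in medium with 10% FBS. Cellular ATP was measured by ATPlite luminescence after lysis, and IC50 was derived from the dose-response.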
# [1] = cellular anti-proliferative IC50, about 72 hours, medium with 10% FBS, ATPlite
SMILES,IC50 [1] [nM],"IC50 (Homo sapiens, RS4-11, 72 h) [nM]"
"COc1cc(CN2CCN(C3CC4(CCN(c5ccc(C(=O)NS(=O)(=O)c6ccc(NCC7CCC(C)(O)CC7)c([N+](=O)[O-])c6)c(N6c7cc8cc[nH]c8nc7O[C@H]7COCC[C@@H]76)c5)CC4)C3)[C@H](c3ccccc3C)C2)cnc1N1CCOC[C@H]1C (stereo partly drawn) [Example 139, 2-[(3R,8S)-2,5-dioxa-9,15,17-triazatetracyclo[8.7.0.0^{3,8}.0^{12,16}]heptadeca-1(10),11,13,16-tetraen-9-yl]-4-{2-[(2R)-4-({5-methoxy-6-[(3R)-3-methylmorpholin-4-yl]pyridin-3-yl}methyl)-2-(2-methylphenyl)piperazin-1-yl]-7-azaspiro[3.5]nonan-7-yl}-N-[3-nitro-4-({[(1r,4r)-4-hydroxy-4-methylcyclohexyl]methyl}amino)benzenesulfonyl]benzamide]",3.5,
"COc1cc(CN2CCN([C@@H]3CC4(CCN(c5ccc(C(=O)NS(=O)(=O)c6ccc(NCC7CCC(C)(O)CC7)c([N+](=O)[O-])c6)c(N6c7cc8cc[nH]c8nc7O[C@H]7COCC[C@@H]76)c5)CC4)[C@@H]3C)[C@H](c3ccccc3C)C2)cnc1N1CCOCC1 (stereo partly drawn) [Example 140, 2-[(3R,8S)-2,5-dioxa-9,15,17-triazatetracyclo[8.7.0.0^{3,8}.0^{12,16}]heptadeca-1(10),11,13,16-tetraen-9-yl]-4-[(1S,2R)-2-[(2R)-4-{[5-methoxy-6-(morpholin-4-yl)pyridin-3-yl]methyl}-2-(2-methylphenyl)piperazin-1-yl]-1-methyl-7-azaspiro[3.5]nonan-7-yl]-N-[3-nitro-4-({[(1r,4r)-4-hydroxy-4-methylcyclohexyl]methyl}amino)benzenesulfonyl]benzamide]",6.4,
"COc1cc(CN2CCN([C@H]3CC4(CCN(c5ccc(C(=O)NS(=O)(=O)c6ccc(NCC7CCC(C)(O)CC7)c([N+](=O)[O-])c6)c(N6c7cc8cc[nH]c8nc7O[C@H]7COCC[C@@H]76)c5)CC4)[C@@H]3C)[C@H](c3ccccc3C)C2)cnc1N1CCOCC1 (stereo partly drawn) [Example 141, 2-[(3R,8S)-2,5-dioxa-9,15,17-triazatetracyclo[8.7.0.0^{3,8}.0^{12,16}]heptadeca-1(10),11,13,16-tetraen-9-yl]-4-[(1S,2S)-2-[(2R)-4-{[5-methoxy-6-(morpholin-4-yl)pyridin-3-yl]methyl}-2-(2-methylphenyl)piperazin-1-yl]-1-methyl-7-azaspiro[3.5]nonan-7-yl]-N-[3-nitro-4-({[(1r,4r)-4-hydroxy-4-methylcyclohexyl]methyl}amino)benzenesulfonyl]benzamide]",35.9,
"COc1cc(CN2CCN(C3CC4(CCN(c5ccc(C(=O)NS(=O)(=O)c6cc7c(c([N+](=O)[O-])c6)N[C@@H](C6CCOCC6)CO7)c(N6c7cc8cc[nH]c8nc7O[C@H]7COCC[C@@H]76)c5)CC4)C3)[C@H](c3ccccc3C)C2)cnc1N1CCOCC1 [Example 142, 4-(2-((R)-4-((5-methoxy-6-morpholinopyridin-3-yl)methyl)-2-(o-tolyl)piperazin-1-yl)-7-azaspiro[3.5]nonan-7-yl)-N—(((S)-5-nitro-3-(tetrahydro-2H-pyran-4-yl)-3,4-dihydro-2H-benzo[b][1,4]oxazin-7-yl)sulfonyl)-2-((5aS,9aR)-6,7,9,9a-tetrahydro-1H-pyrano[3,4-b]pyrrolo[3′,2′:5,6]pyrido[3,2-e][1,4]oxazin-5(5aH)-yl)benzamide]",,8
"COc1cc(CN2CCN(C3CC4(CCN(c5ccc(C(=O)NS(=O)(=O)c6cc7c(c([N+](=O)[O-])c6)N[C@H](C6CCOCC6)CO7)c(N6c7cc8cc[nH]c8nc7O[C@H]7COCC[C@@H]76)c5)CC4)C3)[C@H](c3ccccc3C)C2)cnc1N1CCOCC1 [Example 143, 4-(2-((R)-4-((5-methoxy-6-morpholinopyridin-3-yl)methyl)-2-(o-tolyl)piperazin-1-yl)-7-azaspiro[3.5]nonan-7-yl)-N-(((R)-5-nitro-3-(tetrahydro-2H-pyran-4-yl)-3,4-dihydro-2H-benzo[b][1,4]oxazin-7-yl)sulfonyl)-2-((5aS,9aR)-6,7,9,9a-tetrahydro-1H-pyrano[3,4-b]pyrrolo[3′,2′:5,6]pyrido[3,2-e][1,4]oxazin-5(5aH)-yl)benzamide]",,7
"COc1cc(CN2CCN(C3CC4(CCN(c5ccc(C(=O)NS(=O)(=O)c6ccc(NCC7CCOCC7)c([N+](=O)[O-])c6)c(N6c7cc8cc[nH]c8nc7O[C@H]7COCC[C@@H]76)c5)CC4)C3)[C@@H](c3ccccc3OC(C)C)C2)cnc1N1CCOCC1 [Example 144, 4-(2-((S)-2-(2-isopropoxyphenyl)-4-((5-methoxy-6-morpholinopyridin-3-yl)methyl)piperazin-1-yl)-7-azaspiro[3.5]nonan-7-yl)-N-((3-nitro-4-(((tetrahydro-2H-pyran-4-yl)methyl)amino)phenyl)sulfonyl)-2-((5aS,9aR)-6,7,9,9a-tetrahydro-1H-pyrano[3,4-b]pyrrolo[3′,2′:5,6]pyrido[3,2-e][1,4]oxazin-5(5aH)-yl)benzamide]",,7.3
"Cc1ccccc1[C@@H]1CN(Cc2cnc(N3CCOCC3)c(OC(C)C)c2)CCN1C1CC2(CCN(c3ccc(C(=O)NS(=O)(=O)c4ccc(NCC5CCC(C)(O)CC5)c([N+](=O)[O-])c4)c(N4c5cc6cc[nH]c6nc5O[C@H]5COCC[C@@H]54)c3)CC2)C1 (stereo partly drawn) [Example 145, 2-[(3R,8S)-2,5-dioxa-9,15,17-triazatetracyclo[8.7.0.0^{3,8}.0^{12,16}]heptadeca-1(10),11,13,16-tetraen-9-yl]-4-{2-[(2R)-4-{[5-isopropoxy-6-(morpholin-4-yl)pyridin-3-yl]methyl}-2-(2-methylphenyl)piperazin-1-yl]-7-azaspiro[3.5]nonan-7-yl}-N-[3-nitro-4-({[(1r,4r)-4-hydroxy-4-methylcyclohexyl]methyl}amino)benzenesulfonyl]benzamide]",6.1,
"Cc1cc2c(CN3CCN(C4CC5(CCN(c6ccc(C(=O)NS(=O)(=O)c7ccc(NCC8CCC(C)(O)CC8)c([N+](=O)[O-])c7)c(N7c8cc9cc[nH]c9nc8O[C@H]8COCC[C@@H]87)c6)CC5)C4)[C@H](c4ccccc4C)C3)cnc(N3CCOCC3)c2o1 (stereo partly drawn) [Example 146, 2-[(3R,8S)-2,5-dioxa-9,15,17-triazatetracyclo[8.7.0.0^{3,8}.0^{12,16}]heptadeca-1(10),11,13,16-tetraen-9-yl]-4-{2-[(2R)-4-{[2-methyl-7-(morpholin-4-yl)furo[2,3-c]pyridin-4-yl]methyl}-2-(2-methylphenyl)piperazin-1-yl]-7-azaspiro[3.5]nonan-7-yl}-N-[3-nitro-4-({[(1r,4r)-4-hydroxy-4-methylcyclohexyl]methyl}amino)benzenesulfonyl]benzamide]",8.2,
"Cc1cc2c(CN3CCN(C4CC5(CCN(c6ccc(C(=O)NS(=O)(=O)c7ccc(NCC8CCC(C)(O)CC8)c([N+](=O)[O-])c7)c(N7c8cc9cc[nH]c9nc8O[C@H]8COCC[C@@H]87)c6)CC5)C4)[C@@H](c4ccccc4OC(C)C)C3)cnc(N3CCOCC3)c2o1 (stereo partly drawn) [Example 147, 2-[(3R,8S)-2,5-dioxa-9,15,17-triazatetracyclo[8.7.0.0^{3,8}.0^{12,16}]heptadeca-1(10),11,13,16-tetraen-9-yl]-4-{2-[(2S)-2-(2-isopropoxyphenyl)-4-{[2-methyl-7-(morpholin-4-yl)furo[2,3-c]pyridin-4-yl]methyl}piperazin-1-yl]-7-azaspiro[3.5]nonan-7-yl}-N-[3-nitro-4-({[(1r,4r)-4-hydroxy-4-methylcyclohexyl]methyl}amino)benzenesulfonyl]benzamide]",31.9,
"Cc1ccccc1[C@@H]1CN(Cc2ccnc3c2OCC(C)(C)O3)CCN1C1CC2(CCN(c3ccc(C(=O)NS(=O)(=O)c4ccc(NCC5CCC(C)(O)CC5)c([N+](=O)[O-])c4)c(N4c5cc6cc[nH]c6nc5O[C@H]5COCC[C@@H]54)c3)CC2)C1 (stereo partly drawn) [Example 148, 4-(2-((R)-4-((3,3-dimethyl-2,3-dihydro-[1,4]dioxino[2,3-b]pyridin-8-yl)methyl)-2-(o-tolyl)piperazin-1-yl)-7-azaspiro[3.5]nonan-7-yl)-N-((4-((((1r,4r)-4-hydroxy-4-methylcyclohexyl)methyl)amino)-3-nitrophenyl)sulfonyl)-2-((5aS,9aR)-6,7,9,9a-tetrahydro-1H-pyrano[3,4-b]pyrrolo[3′,2′:5,6]pyrido[3,2-e][1,4]oxazin-5(5aH)-yl)benzamide]",6.3,
"COc1cc(CN2CCN(C3CC4(CCN(c5ccc(C(=O)NS(=O)(=O)c6ccc(NCC7CCC(C)(O)CC7)c([N+](=O)[O-])c6)c(N6c7cc8cc[nH]c8nc7O[C@H]7COCC[C@@H]76)c5)CC4)C3)[C@@H](c3ccccc3C)C2)cnc1OC (stereo partly drawn) [Example 149, 4-(2-((S)-4-((5,6-dimethoxypyridin-3-yl)methyl)-2-(o-tolyl)piperazin-1-yl)-7-azaspiro[3.5]nonan-7-yl)-N-((4-((((1r,4r)-4-hydroxy-4-methylcyclohexyl)methyl)amino)-3-nitrophenyl)sulfonyl)-2-((5aS,9aR)-6,7,9,9a-tetrahydro-1H-pyrano[3,4-b]pyrrolo[3′,2′:5,6]pyrido[3,2-e][1,4]oxazin-5(5aH)-yl)benzamide]",28.3,
"COc1nccc(CN2CCN(C3CC4(CCN(c5ccc(C(=O)NS(=O)(=O)c6ccc(NCC7CCC(C)(O)CC7)c([N+](=O)[O-])c6)c(N6c7cc8cc[nH]c8nc7O[C@H]7COCC[C@@H]76)c5)CC4)C3)[C@@H](c3ccccc3OC(C)C)C2)c1OC (stereo partly drawn) [Example 150, 4-(2-((S)-4-((2,3-dimethoxypyridin-4-yl)methyl)-2-(2-isopropoxyphenyl)piperazin-1-yl)-7-azaspiro[3.5]nonan-7-yl)-N-((4-((((1r,4r)-4-hydroxy-4-methylcyclohexyl)methyl)amino)-3-nitrophenyl)sulfonyl)-2-((5aS,9aR)-6,7,9,9a-tetrahydro-1H-pyrano[3,4-b]pyrrolo[3′,2′:5,6]pyrido[3,2-e][1,4]oxazin-5(5aH)-yl)benzamide]",14.1,
